Counter-ions that a name gives are not always drawn.

In one experiment the target is PDE4B (Homo sapiens, UniProt Q07343). Briefly: In-vitro assay for PDE4 enzymes, real-time enzyme-coupled spectrophotometric assay, PDE4B Activity (Table 10). In kind it is biochemical. Conditions: human PDE4B (hPDE4B), enzyme-coupled spectrophotometric assay; read-out: PDE4B Activity, hPDE4B.
PDE4B, sequence (Q07343 whole entry): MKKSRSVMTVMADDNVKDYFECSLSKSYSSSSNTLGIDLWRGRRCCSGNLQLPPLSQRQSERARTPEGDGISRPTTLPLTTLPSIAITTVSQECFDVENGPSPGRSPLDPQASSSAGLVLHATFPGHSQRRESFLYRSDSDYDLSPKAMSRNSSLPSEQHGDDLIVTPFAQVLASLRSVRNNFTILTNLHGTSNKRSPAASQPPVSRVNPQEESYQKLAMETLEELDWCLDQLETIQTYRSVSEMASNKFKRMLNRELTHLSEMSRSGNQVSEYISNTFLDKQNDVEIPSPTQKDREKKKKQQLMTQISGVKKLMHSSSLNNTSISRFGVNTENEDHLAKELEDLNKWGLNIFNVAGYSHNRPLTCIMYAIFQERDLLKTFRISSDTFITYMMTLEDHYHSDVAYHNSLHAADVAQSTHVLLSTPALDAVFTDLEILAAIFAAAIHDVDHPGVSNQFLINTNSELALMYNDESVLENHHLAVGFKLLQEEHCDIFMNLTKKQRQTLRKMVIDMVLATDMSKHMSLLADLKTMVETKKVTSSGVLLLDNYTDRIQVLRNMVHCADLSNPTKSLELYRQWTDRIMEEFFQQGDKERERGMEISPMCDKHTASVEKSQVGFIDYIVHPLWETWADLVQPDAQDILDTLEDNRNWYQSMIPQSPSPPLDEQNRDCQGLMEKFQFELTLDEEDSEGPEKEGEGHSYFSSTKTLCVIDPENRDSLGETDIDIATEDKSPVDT
Turning to `COc1ccc(Cc2ccc(F)cc2O)cc1-c1cccc([N+](=O)[O-])c1` [P-119, 5-Fluoro-2-(6-methoxy-3′-nitro-biphenyl-3-ylmethyl)-phenol], the IC50 is below 5 µM.

Turning to `COc1ccc(Cc2ccc(CN)nc2)cc1-c1cccc(Cl)c1` [P-591, C-[5-(3′-chloro-6-methoxy-biphenyl-3-ylmethyl)-pyridin-2-yl]-methylamine hydrochloride], the IC50 is below 5 µM.

Consider `[2H]C([2H])(c1ccc(NC(N)=O)cc1)c1ccc(OC)c(-c2cccc(Cl)c2)c1` [P-547, {4-[Bisduetero-(3′-chloro-6-methoxy-biphenyl-3-yl)-methyl]-phenyl}-urea], for which the IC50 is below 5 µM.

In the case of `COc1ccc(CN2CCOC2=O)cc1-c1cccc(C(F)(F)F)c1` [P-083], the IC50 was in the range of 5 to 20 µM.

Regarding `CNC(=O)Cc1ccc(OC)c(-c2cccc([N+](=O)[O-])c2)c1` [Cmpd P-027], the IC50 was 5 to 20 µM.

As for `COc1ccc(CO)c(O)c1-c1cccc([N+](=O)[O-])c1` [Cmpd P-149], the IC50 lay in the range of 5 to 20 µM.

On to `COc1ccc(Cc2cc(N)cc(O)c2)c(F)c1-c1cccc(Cl)c1` [P-324, 3-Amino-5-(3′-chloro-2-fluoro-6-methoxy-biphenyl-3-ylmethyl)-phenol], for which the IC50 is 21 to 40 µM.

`COc1ccc(CN2C[C@@H](OC(N)=O)CC2=O)cc1-c1cccc([N+](=O)[O-])c1` [P-253, Carbamic acid (S)-1-(6-methoxy-3′-nitro-biphenyl-3-ylmethyl)-5-oxo-pyrrolidin-3-yl ester]: the IC50 was in the range of 21 to 40 µM.

In the case of `COc1ccc(Cc2ccncc2)nc1-c1cccc([N+](=O)[O-])c1` [P-019, 3-methoxy-2-(3-nitro-phenyl)-6-pyridin-4-ylmethyl-pyridine], the IC50 is below 5 µM.

On to `COc1ccc(CN2CCCC2=O)nc1-c1cccc([N+](=O)[O-])c1` [P-031, 1-[5-methoxy-6-(3-nitro-phenyl)-pyridin-2-ylmethyl]-pyrrolidin-2-one], for which the IC50 lay within 21 to 40 µM.

The target of another experiment is PDE4 (Homo sapiens, UniProt Q08499). Briefly: In-vitro assay for PDE4 enzymes, real-time enzyme-coupled spectrophotometric assay (Table 9). It counts as biochemical.
PDE4, sequence (Q08499 whole entry): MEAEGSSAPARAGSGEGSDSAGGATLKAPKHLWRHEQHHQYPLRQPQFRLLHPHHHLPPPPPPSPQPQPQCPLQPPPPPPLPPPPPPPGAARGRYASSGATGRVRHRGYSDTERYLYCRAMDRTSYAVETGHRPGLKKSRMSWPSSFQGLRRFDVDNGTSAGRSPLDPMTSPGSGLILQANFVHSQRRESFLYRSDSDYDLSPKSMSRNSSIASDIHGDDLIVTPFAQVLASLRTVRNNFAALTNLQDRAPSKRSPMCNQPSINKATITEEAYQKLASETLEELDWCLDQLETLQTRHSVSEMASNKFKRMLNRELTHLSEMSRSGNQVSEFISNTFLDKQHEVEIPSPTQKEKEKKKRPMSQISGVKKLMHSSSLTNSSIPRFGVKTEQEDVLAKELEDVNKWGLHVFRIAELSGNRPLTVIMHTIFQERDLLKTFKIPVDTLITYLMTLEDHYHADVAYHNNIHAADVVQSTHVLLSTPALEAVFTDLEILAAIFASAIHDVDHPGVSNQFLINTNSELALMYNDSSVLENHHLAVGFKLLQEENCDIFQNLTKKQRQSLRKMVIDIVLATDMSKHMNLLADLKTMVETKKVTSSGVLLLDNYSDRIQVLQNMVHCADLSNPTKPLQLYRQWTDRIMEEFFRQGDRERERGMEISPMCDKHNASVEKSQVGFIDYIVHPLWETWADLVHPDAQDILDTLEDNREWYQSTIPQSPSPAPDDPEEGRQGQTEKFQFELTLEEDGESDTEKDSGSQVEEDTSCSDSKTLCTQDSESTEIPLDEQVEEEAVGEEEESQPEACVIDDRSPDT
Conditions: not given
`COc1ccc(Cc2ccc(CNC(=O)Oc3ccccc3)nc2)c(F)c1-c1cccc(Cl)c1` [P-520, [5-(3′-Chloro-2-fluoro-6-methoxy-biphenyl-3-ylmethyl)-pyridin-2-ylmethyl]-carbamic acid phenyl ester]: the IC50 is below 5 µM.

The same experiment, now with this note: human PDE4D; activity class, Table 9; read-out: hPDE4D.
As for `COc1ccc(Cc2ccc(F)cc2O)cc1-c1cccc([N+](=O)[O-])c1` [P-119, 5-Fluoro-2-(6-methoxy-3′-nitro-biphenyl-3-ylmethyl)-phenol], the IC50 is below 5 µM.

`COc1ccc(Cc2ccc(CN)nc2)cc1-c1cccc(Cl)c1` [P-591, C-[5-(3′-chloro-6-methoxy-biphenyl-3-ylmethyl)-pyridin-2-yl]-methylamine hydrochloride]: the IC50 is below 5 µM.

Turning to `[2H]C([2H])(c1ccc(NC(N)=O)cc1)c1ccc(OC)c(-c2cccc(Cl)c2)c1` [P-547, {4-[Bisduetero-(3′-chloro-6-methoxy-biphenyl-3-yl)-methyl]-phenyl}-urea], the IC50 is below 5 µM.

Regarding `COc1ccc(CN2CCOC2=O)cc1-c1cccc(C(F)(F)F)c1` [P-083], the IC50 lay in the range of 5 to 20 µM.

With `COc1ccc(Cc2ccc(F)cc2)c(C#N)c1-c1cccc([N+](=O)[O-])c1` [P-163, 3-(4-fluoro-benzyl)-6-methoxy-3′-nitro-biphenyl-2-carbonitrile], the IC50 is below 5 µM.

As for `CCNc1ccc(Cc2ccc(OC)c(-c3cccc(Cl)c3)c2)cc1` [P-247, [4-(3′-Chloro-6-methoxy-biphenyl-3-ylmethyl)-phenyl]-ethylamine; HCl salt], the IC50 was below 5 µM.

As for `COc1ccc(Cc2ccc(C(C)N3CCC3)nc2)cc1-c1cccc(Cl)c1` (stereo not shown) [P-609, 2-(1-azetidin-1-yl-ethyl)-5-(3′-chloro-6-methoxy-biphenyl-3-ylmethyl)-pyridine], the IC50 is below 5 µM.

As for `NC(=O)Nc1ccc(Cc2ccc(OCC3CCCO3)c(-c3cccc(Cl)c3)c2)cc1` (stereo not shown) [P-543, {4-[3′-Chloro-6-(tetrahydro-furan-2-ylmethoxy)-biphenyl-3-ylmethyl]-phenyl}-urea], the IC50 is below 5 µM.

Take `COc1ccc(CO)c(O)c1-c1cccc([N+](=O)[O-])c1` [P-149]: the IC50 was below 5 µM.

With `COc1ccc(Cc2ccc(N(C)C)cc2)cc1-c1cccc(Cl)c1` [P-241, [4-(3′-Chloro-6-methoxy-biphenyl-3-ylmethyl)-phenyl]-dimethyl-amine], the IC50 is below 5 µM.

As for `COc1ccc(Cc2ccc(NC(C)=O)cc2)c(F)c1-c1cccc(N2CCOCC2)c1` [P-390, N-[4-(2-Fluoro-6-methoxy-3′-morpholin-4-yl-biphenyl-3-ylmethyl)-phenyl]-acetamide], the IC50 is 5 to 20 µM.

Turning to `COc1ccc(Cc2ccc(CNS(C)(=O)=O)c(F)c2)c(F)c1-c1cccc(Cl)c1` [P-286], the IC50 is below 5 µM.

As for `COc1ccc(Cc2ccc(Nc3nccs3)cc2)cc1-c1cccc(Cl)c1` [P-454, [4-(3′-Chloro-6-methoxy-biphenyl-3-ylmethyl)-phenyl]-thiazol-2-yl-amine], the IC50 is below 5 µM.

Consider `COc1ccc(CN2C(=O)c3ccccc3C2=O)cc1-c1ccc2c(c1)OCO2` [P-052, 2-(3-Benzo[1,3]dioxol-5-yl-4-methoxy-benzyl)-isoindole-1,3-dione], for which the IC50 is below 5 µM.

With `COc1ccc(Cc2ccc(N3CCC[C@H]3C(C)(C)O)nc2)c(F)c1-c1cccc(Cl)c1` [P-581, 2-{(S)-1-[5-(3′-chloro-2-fluoro-6-methoxy-biphenyl-3-ylmethyl)-pyridin-2-yl]-pyrrolidin-2-yl}-propan-2-ol], the IC50 is below 5 µM.

Consider `CNCC(=O)Nc1ccc(Cc2ccc(OC)c(-c3cccc(Cl)c3)c2F)cc1` [P-289], for which the IC50 is below 5 µM.

On to `COCc1cccc(-c2cc(Cn3cncn3)ccc2OC)c1` [P-108, 1-(6-Methoxy-3′-methoxymethyl-biphenyl-3-ylmethyl)-1H-[1,2,4]triazole], for which the IC50 is below 5 µM.

With `COc1ccc(Cc2ccc(F)cc2)c(F)c1-c1cccc(N)c1` [P-098], the IC50 is below 5 µM.

As for `COc1ccc(COc2ccnc(N3CCCC3)c2)cc1-c1cccc(Cl)c1` [P-607], the IC50 is below 5 µM.

Take `COc1ccc(Cc2ccc(F)cc2)cc1-n1cc(-c2ccncc2)cn1` [P-389, 4-{1-[5-(4-Fluoro-benzyl)-2-methoxy-phenyl]-1H-pyrazol-4-yl}-pyridine]: the IC50 lay in the range of 5 to 20 µM.

With `CNC(=O)Cc1ccc(OC)c(-c2cccc([N+](=O)[O-])c2)c1` [P-027], the IC50 was below 5 µM.

Regarding `COc1ccc(CN2CCC[C@@H]2CO)cc1-c1cccc([N+](=O)[O-])c1` [P-493, [(R)-1-(6-Methoxy-3′-nitro-biphenyl-3-ylmethyl)-pyrrolidin-2-yl]-methanol], the IC50 lay within 20 to 40 µM.

For the compound `COc1ccc(Cc2ccc(NC(C)=O)cc2)c(F)c1-c1cccc(N2CCCC2)c1` [P-381, N-[4-(2-Fluoro-6-methoxy-3′-pyrrolidin-1-yl-biphenyl-3-ylmethyl)-phenyl]-acetamide], the IC50 is below 5 µM.

On to `COc1ccc(COc2ccc(Br)cn2)c(F)c1-c1cccc(Cl)c1` [P-574], for which the IC50 is below 5 µM.

With `COc1ccc(Cc2cccc(CNC(=O)OC(C)(C)C)c2)cc1-c1cccc([N+](=O)[O-])c1` [P-160, [3-(6-Methoxy-3′-nitro-biphenyl-3-ylmethyl)-benzyl]-carbamic acid tert-butyl ester], the IC50 was 5 to 20 µM.

On to `COc1ccc(Cc2ccc(NC(C)=O)cc2)c(F)c1-c1cccc(N)c1` [P-167], for which the IC50 was below 5 µM.

Take `COc1ccc(CN2CCOCC2)nc1-c1cccc([N+](=O)[O-])c1` [P-026, 4-[5-methoxy-6-(3-nitro-phenyl)-pyridin-2-ylmethyl]-morpholine]: the IC50 fell in the range of 5 to 20 µM.

As to `CCNC(=O)Nc1ccc([S+]([O-])c2ccc(OC)c(-c3cccc(Cl)c3)c2)cc1` (stereo not shown) [P-449, 1-[4-(3′-Chloro-6-methoxy-biphenyl-3-sulfinyl)-phenyl]-3-ethyl urea], the IC50 was below 5 µM.

In the case of `COc1ccc(Cn2cc(-c3ccc(NC(N)=O)cc3)cn2)c(F)c1-c1cccc(Cl)c1` [P-435], the IC50 was below 5 µM.

As for `COc1ccc(Cn2cncn2)cc1-c1cccc([S+](C)[O-])c1` (stereo not shown) [P-169, 1-(3′-Methanesulfinyl-6-methoxy-biphenyl-3-ylmethyl)-1H-[1,2,4]triazole], the IC50 lay within 5 to 20 µM.

With `COc1ccc(Cc2ccc(F)cc2)cc1-n1cc(Cl)cn1` [P-380, 4-Chloro-1-[5-(4-fluoro-benzyl)-2-methoxy-phenyl]-1H-pyrazole], the IC50 is below 5 µM.

On to `COc1ccc(Cn2cncn2)nc1-c1cccc(C(F)(F)F)c1` [P-064, 3-methoxy-6-[1,2,4]triazol-1-ylmethyl-2-(3-trifluoromethyl-phenyl)-pyridine], for which the IC50 lay within 5 to 20 µM.

With `COc1ccc(Cc2ccc(N(C)C)cc2)c(F)c1-c1cccc(C(C)=O)c1` [P-326, 1-[3′-(4-Dimethylamino-benzyl)-2′-fluoro-6′-methoxy-biphenyl-3-yl]-ethanone], the IC50 was below 5 µM.

On to `COc1ccc(Cn2cncn2)cc1-c1ccc2[nH]ccc2c1` [P-486, 5-(2-Methoxy-5-[1,2,4]triazol-1-ylmethyl-phenyl)-1H-indole], for which the IC50 lay within 20 to 40 µM.

Take `COc1ccc(Cn2cnc3ccccc32)cc1-c1cccc([N+](=O)[O-])c1` [P-483, 1-(6-Methoxy-3′-nitro-biphenyl-3-ylmethyl)-1H-benzoimidazole]: the IC50 was below 5 µM.

Turning to `COc1ccc(Cc2cccc(NS(C)(=O)=O)c2)cc1-c1cccc(Cl)c1` [P-271, N-[3-(3′-Chloro-6-methoxy-biphenyl-3-ylmethyl)-phenyl]-methanesulfonamide], the IC50 was 5 to 20 µM.

`COc1ccc(COc2ccc(N3CCC3)nc2)c(F)c1-c1cccc(Cl)c1` [P-586]: the IC50 was below 5 µM.

Consider `COc1ccc(Cn2cncn2)cc1-c1cccc([N+](=O)[O-])c1` [P-005], for which the IC50 is below 5 µM.

Regarding `COc1ccc(Cc2cccc(OCCN3CCOCC3)c2)c(F)c1-c1cccc(Cl)c1` [P-220], the IC50 is below 5 µM.

Turning to `COc1ccc(Cc2ccc(F)cc2)cc1-n1ccc(C(F)(F)F)n1` [P-396, 1-[5-(4-Fluoro-benzyl)-2-methoxy-phenyl]-3-trifluoromethyl-1H-pyrazole], the IC50 is below 5 µM.

For the compound `COc1ccc(Cc2ccc(N(C)CC(N)=O)nc2)c(F)c1-c1cccc(Cl)c1` [P-622, 2-{[5-(3′-Chloro-2-fluoro-6-methoxy-biphenyl-3-ylmethyl)-pyridin-2-yl]-methyl-amino}-acetamide], the IC50 was below 5 µM.

On to `COc1ccc(COc2ccnc(N3CCCC3)c2)c(F)c1-c1cccc(Cl)c1` [P-608], for which the IC50 was below 5 µM.

Regarding `CN1CC[C@H](Oc2ccc(Cc3ccc(NC(N)=O)cc3)cc2-c2cccc(Cl)c2)C1` [P-556], the IC50 lay within 5 to 20 µM.

With `COc1ccc(C(=O)c2ccc(N)cc2)cc1-c1ccc(F)c(F)c1` [P-580], the IC50 is below 5 µM.

For the origin of these results see patent US8791267B2, “Biaryl PDE4 inhibitors for treating inflammatory, cardiovascular and CNS disorders” (Decode Genetics EHF, priority 2007, dated 2014).
